# Test results reported in patent US7186831B2, “5-halo-2-alkyl[1,2,4]triazolo[1,5-a]pyrimidin-7-amines” (priority 2001, dated 2007).
# Assay: log P by HPLC
# Assay type: physicochemical
# Settings: HPLC, gradient method, acetonitrile/0.1% aqueous phosphoric acid; EEC directive 79/831 Annex V. A8
row,Compound,logP
1,Cc1nc2nc(Cl)c(-c3c(F)cc(F)cc3F)c(N3CCCCC3C)n2n1 (stereo not shown) [compound 164],3.81
2,Cc1nc2nc(Cl)c(-c3c(F)cc(F)cc3F)c(N3CCCC(C)C3)n2n1 (stereo not shown) [compound 165],3.9
3,Cc1nc2nc(Cl)c(-c3c(F)cc(F)cc3F)c(N3CCC(C)CC3)n2n1 [compound 166],3.9
4,Cc1nc2nc(Cl)c(-c3c(F)cc(F)cc3F)c(N3CCC(F)CC3)n2n1 [compound 167],3.03
5,Cc1nc2nc(Cl)c(-c3c(F)cc(F)cc3F)c(N3Cc4ccccc4CO3)n2n1 [compound 168],3.73
6,Cc1nc2nc(Cl)c(-c3c(F)cccc3F)c(N3CC(C)OC(C)C3)n2n1 (stereo not shown) [compound 169],2.84
7,Cc1nc2nc(Cl)c(-c3c(F)cccc3F)c(N3CCCC3)n2n1 [compound 170],2.61
8,Cc1nc2nc(Cl)c(-c3c(F)cccc3F)c(N3CCCCC3)n2n1 [compound 171],3.17
9,CCCNc1c(-c2c(F)cccc2F)c(Cl)nc2nc(C)nn12 [compound 172],2.52
10,Cc1nc2nc(Cl)c(-c3c(F)cccc3F)c(NC3CCCC3)n2n1 [compound 173],2.97
11,Cc1nc2nc(Cl)c(-c3c(F)cccc3F)c(NC(C)C)n2n1 [compound 174],2.52
12,CCN(CC)c1c(-c2c(F)cccc2F)c(Cl)nc2nc(C)nn12 [compound 175],2.98
13,Cc1nc2nc(Cl)c(-c3c(F)cccc3F)c(N3CCOCC3)n2n1 [compound 176],2.2
14,COCCNc1c(-c2c(F)cccc2F)c(Cl)nc2nc(C)nn12 [compound 177],2.12
15,Cc1nc2nc(Cl)c(-c3c(F)cccc3F)c(NC3CC3)n2n1 [compound 178],2.28
16,Cc1nc2nc(Cl)c(-c3c(F)cccc3F)c(N3CCSCC3)n2n1 [compound 179],2.84
17,Cc1nc2nc(Cl)c(-c3c(F)cccc3F)c(N3CCC(C(F)(F)F)CC3)n2n1 [compound 180],3.36
18,Cc1nc2nc(Cl)c(-c3c(F)cccc3F)c(NCC3CC3)n2n1 [compound 181],2.62
19,Cc1nc2nc(Cl)c(-c3c(F)cccc3F)c(NC(C)C(F)(F)F)n2n1 (stereo not shown) [compound 182],2.78
20,C=C(C)CNc1c(-c2c(F)cccc2F)c(Cl)nc2nc(C)nn12 [compound 183],2.56
21,Cc1nc2nc(Cl)c(-c3c(F)cccc3F)c(NCCC(F)(F)F)n2n1 [compound 184],2.63
22,Cc1nc2nc(Cl)c(-c3c(F)cccc3F)c(NC(C)C3CCCCC3)n2n1 (stereo not shown) [compound 185],4
23,Cc1nc2nc(Cl)c(-c3c(F)cccc3F)c(NC3CCCCC3)n2n1 [compound 186],3.28
24,CCC(C)Nc1c(-c2c(F)cccc2F)c(Cl)nc2nc(C)nn12 (stereo not shown) [compound 187],2.82

row,Compound,logP
1,Cc1nc2nc(Cl)c(-c3c(F)cccc3F)c(NC3CCCC(C(F)(F)F)C3)n2n1 (stereo not shown) [compound 188],3.37
2,Cc1nc2nc(Cl)c(-c3c(F)cccc3F)c(NC3CC(C(F)(F)F)CC(C(F)(F)F)C3)n2n1 (stereo not shown) [compound 189],3.62
3,Cc1nc2nc(Cl)c(-c3c(F)cccc3F)c(NC3CCC(C(F)(F)F)CC3)n2n1 (stereo not shown) [compound 190],3.39
4,Cc1nc2nc(Cl)c(-c3ccc(F)cc3F)c(NCC(C)C)n2n1 [compound 191],3
5,CCCCNc1c(-c2ccc(F)cc2F)c(Cl)nc2nc(C)nn12 [compound 192],3.04
6,Cc1nc2nc(Cl)c(-c3ccc(F)cc3F)c(NCC(C)(C)C)n2n1 [compound 193],3.4
7,CCC(C)Nc1c(-c2ccc(F)cc2F)c(Cl)nc2nc(C)nn12 (stereo not shown) [compound 194],3.01
8,Cc1nc2nc(Cl)c(-c3ccc(F)cc3F)c(NCCC(F)(F)F)n2n1 [compound 195],2.76
9,Cc1nc2nc(Cl)c(-c3ccc(F)cc3F)c(NC(C)C)n2n1 [compound 196],2.69
10,Cc1nc2nc(Cl)c(-c3ccc(F)cc3F)c(NC3CCCCC3)n2n1 [compound 197],3.46
11,Cc1nc2nc(Cl)c(-c3ccc(F)cc3F)c(NC(C)C3CCCCC3)n2n1 (stereo not shown) [compound 198],4.24
12,Cc1nc2nc(Cl)c(-c3ccc(F)cc3F)c(NC3CC3)n2n1 [compound 199],2.45
13,Cc1nc2nc(Cl)c(-c3ccc(F)cc3F)c(NCC3CC3)n2n1 [compound 200],2.77
14,C=C(C)CNc1c(-c2ccc(F)cc2F)c(Cl)nc2nc(C)nn12 [compound 201],2.72
15,Cc1nc2nc(Cl)c(-c3ccc(F)cc3F)c(N(C)CC3OCCO3)n2n1 [compound 202],2.56
16,Cc1nc2nc(Cl)c(-c3ccc(F)cc3F)c(N(C)Cc3ccco3)n2n1 [compound 204],3.1
17,C=CCN(CC)c1c(-c2ccc(F)cc2F)c(Cl)nc2nc(C)nn12 [compound 207],3.35
18,CCN(CC1CCCO1)c1c(-c2ccc(F)cc2F)c(Cl)nc2nc(C)nn12 (stereo not shown) [compound 208],3.18
19,Cc1nc2nc(Cl)c(-c3c(F)cccc3Cl)c(N3CCOCC3)n2n1 [compound 246],2.48
20,Cc1nc2nc(Cl)c(-c3c(F)cccc3Cl)c(NCC(C)C)n2n1 [compound 248],3.14
21,Cc1nc2nc(Cl)c(-c3c(F)cccc3Cl)c(NCC(C)(C)C)n2n1 [compound 249],3.59
22,C=C(C)CNc1c(-c2c(F)cccc2Cl)c(Cl)nc2nc(C)nn12 [compound 250],2.8
23,Cc1nc2nc(Cl)c(-c3c(F)cccc3Cl)c(N3CCCC3)n2n1 [compound 251],2.95

# Other lines, results leading:
row,logP,Compound
1,3.06,C=CCN(C)c1c(-c2ccc(F)cc2F)c(Cl)nc2nc(C)nn12 [compound 203]
2,3.49,Cc1nc2nc(Cl)c(-c3ccc(F)cc3F)c(N(C)CC(C)C)n2n1 [compound 205]
3,3.41,C=C(C)CN(C)c1c(-c2ccc(F)cc2F)c(Cl)nc2nc(C)nn12 [compound 206]
4,3.26,CCCN(CCOC)c1c(-c2ccc(F)cc2F)c(Cl)nc2nc(C)nn12 [compound 209]
5,3.1,Cc1nc2nc(Cl)c(-c3ccccc3Cl)c(NCC(C)C)n2n1 [compound 210]
6,3.57,Cc1nc2nc(Cl)c(-c3ccccc3Cl)c(NCC(C)(C)C)n2n1 [compound 211]
7,3.09,CCC(C)Nc1c(-c2ccccc2Cl)c(Cl)nc2nc(C)nn12 (stereo not shown) [compound 212]
8,3.28,Cc1nc2nc(Cl)c(-c3ccccc3Cl)c(NC3CCCC3)n2n1 [compound 213]
9,2.75,Cc1nc2nc(Cl)c(-c3ccccc3Cl)c(NC(C)C)n2n1 [compound 214]
10,2.54,Cc1nc2nc(Cl)c(-c3ccccc3Cl)c(NC3CC3)n2n1 [compound 215]
11,2.85,Cc1nc2nc(Cl)c(-c3ccccc3Cl)c(NCC3CC3)n2n1 [compound 216]
12,2.83,C=C(C)CNc1c(-c2ccccc2Cl)c(Cl)nc2nc(C)nn12 [compound 217]
13,3.84,Cc1nc2nc(Cl)c(-c3ccccc3Cl)c(NC(C)CC(C)C)n2n1 (stereo not shown) [compound 218]
14,2.62,Cc1nc2nc(Cl)c(-c3ccccc3Cl)c(N(C)CC3OCCO3)n2n1 [compound 219]
15,3.19,C=CCN(C)c1c(-c2ccccc2Cl)c(Cl)nc2nc(C)nn12 [compound 220]
16,3.65,Cc1nc2nc(Cl)c(-c3ccccc3Cl)c(N(C)CC(C)C)n2n1 [compound 221]
17,2.64,COCCN(C)c1c(-c2ccccc2Cl)c(Cl)nc2nc(C)nn12 [compound 222]
18,3.57,C=C(C)CN(C)c1c(-c2ccccc2Cl)c(Cl)nc2nc(C)nn12 [compound 223]
19,3.5,C=CCN(CC)c1c(-c2ccccc2Cl)c(Cl)nc2nc(C)nn12 [compound 224]
20,2.94,CCN(CCOC)c1c(-c2ccccc2Cl)c(Cl)nc2nc(C)nn12 [compound 225]
21,3.27,Cc1nc2nc(Cl)c(-c3ccccc3Cl)c(N3CCCC3C)n2n1 (stereo not shown) [compound 226]

row,logP,Compound
1,0.75,Cc1nc2nc(Cl)c(-c3ccccc3Cl)c(N3CCCC3)n2n1 [compound 227]
2,0.75,Cc1nc2nc(Cl)c(-c3ccccc3Cl)c(N3CC=CCC3)n2n1 [compound 228]
3,3.92,Cc1nc2nc(Cl)c(-c3ccccc3Cl)c(N3CCCC(C)C3)n2n1 (stereo not shown) [compound 229]
4,3.94,Cc1nc2nc(Cl)c(-c3ccccc3Cl)c(N3CCC(C)CC3)n2n1 [compound 230]
5,3.7,CC1=CCCN(c2c(-c3ccccc3Cl)c(Cl)nc3nc(C)nn23)C1 [compound 231]
6,3.63,Cc1nc2nc(Cl)c(-c3ccccc3Cl)c(N3CCC(C(F)(F)F)CC3)n2n1 [compound 232]
7,3.48,Cc1nc2nc(Cl)c(-c3ccccc3Cl)c(N3CCCCC3)n2n1 [compound 233]
8,2.38,Cc1nc2nc(Cl)c(-c3ccccc3Cl)c(N3CCOCC3)n2n1 [compound 234]
9,3.09,Cc1nc2nc(Cl)c(-c3ccccc3Cl)c(N3CCSCC3)n2n1 [compound 235]
10,2.3,COCCNc1c(-c2ccccc2Cl)c(Cl)nc2nc(C)nn12 [compound 236]
11,2.75,C#CCN(C)c1c(-c2ccccc2Cl)c(Cl)nc2nc(C)nn12 [compound 237]
12,3.2,Cc1nc2nc(Cl)c(-c3ccccc3Cl)c(N(C)Cc3ccco3)n2n1 [compound 238]
13,3.23,CCN(CC1CCCO1)c1c(-c2ccccc2Cl)c(Cl)nc2nc(C)nn12 (stereo not shown) [compound 239]
14,3.11,CCOC(=O)CN(CC)c1c(-c2ccccc2Cl)c(Cl)nc2nc(C)nn12 [compound 240]
15,4.1,CCCCN(CC)c1c(-c2ccccc2Cl)c(Cl)nc2nc(C)nn12 [compound 241]
16,3.24,CCN(CC)c1c(-c2ccccc2Cl)c(Cl)nc2nc(C)nn12 [compound 242]
17,4.07,CCCN(CC1CC1)c1c(-c2ccccc2Cl)c(Cl)nc2nc(C)nn12 [compound 243]
18,3.7,CCCN(CC1CCCO1)c1c(-c2ccccc2Cl)c(Cl)nc2nc(C)nn12 (stereo not shown) [compound 244]
19,0.75,Cc1nc2nc(Cl)c(-c3ccccc3Cl)c(N3CCC(O)C3)n2n1 (stereo not shown) [compound 245]
20,4.18,CCCCN(CC)c1c(-c2ccccc2Cl)c(Cl)nc2nc(C)nn12 [compound 247]
